Where two headings read alike, the source gives them in different places.
Experiments:
[1] = system: Polio I; experiment: organism not typed; assay type: cell-based; settings: Vero
[2] = system: Echo 11; assay type: cell-based; settings: Echo 11, Primary Monkey Kidney Cells, 178 TCID50
Experimental: (§1) In preparing the compounds for testing, they were handled aseptically throughout. The compounds were dissolved in a minimum amount of a suitable solvent, and the final dilutions were made up to the required volume in a complete culture medium in a concentration not exceeding the predetermined maximum non-cytotoxic levels.
(§2) The cell cultures used in all primary in vitro antipicorna virus screening tests were an established cell line of the African green monkey kidney (VERO), a primary cell culture of the Cercopythecus monkey kidney, or human embryonic lung diploid cells WI-38.
(§3) Standard batches of the viruses were made by growing the virus in an appropriate cell culture and then making a pool which was dispersed in ampoules and kept frozen at -76° C until used. The titer of each virus was determined in the cell cultures used.
(§4) The cells were grown in test tubes in a suitable medium. Immediately before use the initial medium was replaced with the one which contained the test compound in an appropriate concentration. After the virus was added, the infected culture was incubated at 37° C for a number of days and the cytopathic effect of the virus observed and recorded. The results were read every day in all of the tubes and the destruction of cells assessed in precentage of the cell sheet destroyed: 0-25-50-75-100%. As controls, cells with only virus (for cytopathic effect) or with only the compound (for cytotoxic effect) were used as well as the normal, uninfected cells (no cytotoxic -- no cytopathic effects).
(§5) Net difference in cytopathic effect between treated and control tubes expressed in percentage give the extent of the inhibitory activity of the substance.
(§6) The TCID50 represents the tissue culture infective dose of virus that will destroy 50% of the cells.

[3] = system: Echo 9; assay type: cell-based; settings: Echo 9, Vero, 31.6 TCID50
Experimental: as §1, §2, §3, §4, §5, §6

[4] = system: Vero cells; experiment: cytotoxicity against Vero cells; assay type: cell-based, African green monkey; settings: for Toxicity (%): Vero
Experimental: as §1, §2
(§7) The cytotoxic stuides were performed on each of the compounds to determine the level of response of the cells used to the potentially toxic action of the substances.
as §4

[5] = system: primary monkey kidney cells; experiment: cytotoxicity against primary monkey kidney cells; assay type: cell-based, Cercopythecus monkey; settings: for Toxicity (%): pMK
Experimental: as §1, §2, §7, §4

[6] = system: mice; experiment: LD50 in mice; assay type: in vivo
[7] = system: Mahoney strain of Polio virus; assay type: in vivo, Cynomolgus monkey
[8] = system: viruses of the Picorna group; experiment: antiviral activity (general statements); assay type: cell-based; settings: result in words
Experimental: The in vitro activity of representative compounds of the present invention are set forth below.
as §1, §2, §4, §5

[9] = system: Cynomolgus monkeys; settings: cynomolgus monkey, in vivo, 25 mg/kg/day
[10] = Virus + Substance, 25 mg/kg/day, i.p. or s.c.
[11] = Virus + Substance, 25 mg/kg/day, 4th Day
[12] = Virus + Substance, 25 mg/kg/day, 8th Day
[13] = Virus + Substance, 25 mg/kg/day, 11th Day
[14] = Virus + Substance, 25 mg/kg/day, 15th Day

## Acetylated 5-(3',4',-Dimethoxybenzal) hydantoin [Example 14]
[1]; 316 TCID50, 0.5 μg/ml
  % Inhibition: 93%
[1]; 316 TCID50, 1 μg/ml
  % Inhibition: 100%
[1]; 316 TCID50, 5 μg/ml
  % Inhibition: 100%
[1]; 316 TCID50, 10 μg/ml
  % Inhibition: 100%
[2]; 0.1 μg/ml
  % Inhibition: 7%
[2]; 0.3 μg/ml
  % Inhibition: 32%
[2]; 0.7 μg/ml
  % Inhibition: 32%
[2]; 1.0 μg/ml
  % Inhibition: 68%
[2]; 3.3 μg/ml
  % Inhibition: 100%
[2]; 6.7 μg/ml
  % Inhibition: 100%
[2]; 10 μg/ml
  % Inhibition: 100%
[2]; 25 μg/ml
  % Inhibition: 100%
[2]; 50 μg/ml
  % Inhibition: 100%
[2]; 100 μg/ml
  % Inhibition: 100%
[3]; 0.1 μg/ml
  % Inhibition: 8%
[3]; 0.3 μg/ml
  % Inhibition: 29%
[3]; 0.7 μg/ml
  % Inhibition: 42%
[3]; 1.0 μg/ml
  % Inhibition: 71%
[3]; 3.3 μg/ml
  % Inhibition: 92%
[3]; 6.7 μg/ml
  % Inhibition: 100%
[3]; 10.0 μg/ml
  % Inhibition: 100%
[4]; Vero cells, 50% inhibition of the cell growth
  Cytotoxicity CTD50: > 100 µg/mL
[4]; Vero cells, maximal non-toxic concentration
  Cytotoxicity CTD0: > 10 µg/mL
[4]; 0.1 micrograms/ml
  Toxicity (%): 0%
[4]; 0.3 micrograms/ml
  Toxicity (%): 0%
[4]; 0.7 micrograms/ml
  Toxicity (%): 0%
[4]; 1.0 micrograms/ml
  Toxicity (%): 0%
[4]; 3.3 micrograms/ml
  Toxicity (%): 0%
[4]; 6.7 micrograms/ml
  Toxicity (%): 0%
[4]; 10 micrograms/ml
  Toxicity (%): 10%
[4]; 25 micrograms/ml
  Toxicity (%): 10%
[4]; 33.3 micrograms/ml
  Toxicity (%): 10%
[4]; 50 micrograms/ml
  Toxicity (%): 10%
[4]; 66.7 micrograms/ml
  Toxicity (%): 10%
[4]; 75 micrograms/ml
  Toxicity (%): 10%
[4]; 100 micrograms/ml
  Toxicity (%): 10%
[4]; 150 micrograms/ml
  Toxicity (%): 10%
[4]; 200 micrograms/ml
  Toxicity (%): 25%
[4]; 250 micrograms/ml
  Toxicity (%): 75%
[4]; 300 micrograms/ml
  Toxicity (%): 100%
[5]; Primary Monkey Kidney Cells, 50% inhibition of the cell growth
  Cytotoxicity CTD50: > 100 µg/mL
[5]; Primary Monkey Kidney Cells, maximal non-toxic concentration
  Cytotoxicity CTD0: > 100 µg/mL
[5]; 0.1 micrograms/ml
  Toxicity (%): 0%
[5]; 0.3 micrograms/ml
  Toxicity (%): 0%
[5]; 0.7 micrograms/ml
  Toxicity (%): 0%
[5]; 1.0 micrograms/ml
  Toxicity (%): 0%
[5]; 3.3 micrograms/ml
  Toxicity (%): 0%
[5]; 6.7 micrograms/ml
  Toxicity (%): 0%
[5]; 10 micrograms/ml
  Toxicity (%): 0%
[5]; 25 micrograms/ml
  Toxicity (%): 0%
[5]; 33.3 micrograms/ml
  Toxicity (%): 0%
[5]; 50 micrograms/ml
  Toxicity (%): 0%
[5]; 66.7 micrograms/ml
  Toxicity (%): 0%
[5]; 75 micrograms/ml
  Toxicity (%): 0%
[5]; 100 micrograms/ml
  Toxicity (%): 0%
[5]; 150 micrograms/ml
  Toxicity (%): 10%
[5]; 200 micrograms/ml
  Toxicity (%): 75%
[5]; 250 micrograms/ml
  Toxicity (%): 100%
[5]; 300 micrograms/ml
  Toxicity (%): 100%
[6]; intraperitoneal, daily injection during 16 days
  subacute LD50: 400 to 500 mg/kg
[6]; oral administration
  LD50: greater than 1,300 mg/kg
[7]; Cynomolgus monkeys, result in words
  effectiveness against the Mahoney Polio virus strain in the infected animals: effective against the Mahoney Polio virus strain in the infected animals
[7]; [10]
  Average Day of Paralysis: 13.5
  Cumulative morbidity, paralyses, %: 25.0%
  Cumulative morbidity, paralyses, No.: 2/8
  Histopathological changes as brain, %: 20.0%
  Histopathological changes as brain, No.: 2/10
[7]; [11]
  Presence of poliovirus in rectal, %: 36.4%
  Presence of poliovirus in rectal, No.: 4/11
[7]; [12]
  Presence of poliovirus in rectal, %: 25.0%
  Presence of poliovirus in rectal, No.: 2/8
[7]; [13]
  Presence of poliovirus in rectal, %: 25.0%
  Presence of poliovirus in rectal, No.: 2/8
[7]; [14]
  Presence of poliovirus in rectal, %: 16.7%
  Presence of poliovirus in rectal, No.: 1/6
[8]
  degree of antiviral activity: greater degree of antiviral activity than the unacetylated compound
[9]
  Cumulative morbidity, paralyses, %: 0%
  Cumulative morbidity, paralyses, No.: 0/5
  Histopathological changes as brain, %: 0%
  Histopathological changes as brain, No.: 0/5

Source: patent US4065570A (priority 1975, dated 1977)
